# Experimental data from US8192962B2, “Processes for detecting toxic substances” (Daikin Industries, Ltd., priority 2001, dated 2012).
# System: Genes belonging to other category
# Experiment: DNA chip mRNA expression in yeast, genes belonging to other category (Table 9)
# Format: cell-based, Saccharomyces cerevisiae S288C
# Outline: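 Expression change after 2 h toxicant exposure (growth-inhibiting, sub-lethal) of log-phase S. cerevisiae S288C at 25° C. Oligo-dT-purified mRNA was labeled with Cy3-dUTP or Cy5-dUTP and hybridized >12 h at 65° C. to a genome-wide chip; ratio of scanned fluorescence to control.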
substance,measurement,setting,value
Na2As [(1)],The level of expressed mRNA in the presence of chemical substance/The level of expressed mRNA in the absence of chemical substance,yeast gene YKL008C,1.2
same,The level of expressed mRNA in the presence of chemical substance/The level of expressed mRNA in the absence of chemical substance,yeast gene YKL013C,1.4
same,The level of expressed mRNA in the presence of chemical substance/The level of expressed mRNA in the absence of chemical substance,yeast gene YKL039W,0.8
same,The level of expressed mRNA in the presence of chemical substance/The level of expressed mRNA in the absence of chemical substance,yeast gene YKL041W,1.2
same,The level of expressed mRNA in the presence of chemical substance/The level of expressed mRNA in the absence of chemical substance,yeast gene YKL096W,1.4
same,The level of expressed mRNA in the presence of chemical substance/The level of expressed mRNA in the absence of chemical substance,yeast gene YKL139W,0.9
same,The level of expressed mRNA in the presence of chemical substance/The level of expressed mRNA in the absence of chemical substance,yeast gene YKL165C,0.5
same,The level of expressed mRNA in the presence of chemical substance/The level of expressed mRNA in the absence of chemical substance,yeast gene YKL193C,1.3
same,The level of expressed mRNA in the presence of chemical substance/The level of expressed mRNA in the absence of chemical substance,yeast gene YLR120C,1.2
same,The level of expressed mRNA in the presence of chemical substance/The level of expressed mRNA in the absence of chemical substance,yeast gene YLR136C,1.3
same,The level of expressed mRNA in the presence of chemical substance/The level of expressed mRNA in the absence of chemical substance,yeast gene YLR178C,1.7
same,The level of expressed mRNA in the presence of chemical substance/The level of expressed mRNA in the absence of chemical substance,yeast gene YLR250W,1.5
same,The level of expressed mRNA in the presence of chemical substance/The level of expressed mRNA in the absence of chemical substance,yeast gene YLR327C,5.5
same,The level of expressed mRNA in the presence of chemical substance/The level of expressed mRNA in the absence of chemical substance,yeast gene YLR356W,1.0
same,The level of expressed mRNA in the presence of chemical substance/The level of expressed mRNA in the absence of chemical substance,yeast gene YLR362W,1.1
same,The level of expressed mRNA in the presence of chemical substance/The level of expressed mRNA in the absence of chemical substance,yeast gene YLR429W,0.7
same,The level of expressed mRNA in the presence of chemical substance/The level of expressed mRNA in the absence of chemical substance,yeast gene YMR004W,0.9
same,The level of expressed mRNA in the presence of chemical substance/The level of expressed mRNA in the absence of chemical substance,yeast gene YMR094W,1.0
same,The level of expressed mRNA in the presence of chemical substance/The level of expressed mRNA in the absence of chemical substance,yeast gene YMR104C,1.9
same,The level of expressed mRNA in the presence of chemical substance/The level of expressed mRNA in the absence of chemical substance,yeast gene YMR219W,0.7
same,The level of expressed mRNA in the presence of chemical substance/The level of expressed mRNA in the absence of chemical substance,yeast gene YMR226C,1.1
same,The level of expressed mRNA in the presence of chemical substance/The level of expressed mRNA in the absence of chemical substance,yeast gene YMR275C,0.7
same,The level of expressed mRNA in the presence of chemical substance/The level of expressed mRNA in the absence of chemical substance,yeast gene YMR276W,0.6
same,The level of expressed mRNA in the presence of chemical substance/The level of expressed mRNA in the absence of chemical substance,yeast gene YNL006W,1.1
same,The level of expressed mRNA in the presence of chemical substance/The level of expressed mRNA in the absence of chemical substance,yeast gene YNL007C,0.7
same,The level of expressed mRNA in the presence of chemical substance/The level of expressed mRNA in the absence of chemical substance,yeast gene YNL093W,2.1
same,The level of expressed mRNA in the presence of chemical substance/The level of expressed mRNA in the absence of chemical substance,yeast gene YNL333W,1.0
same,The level of expressed mRNA in the presence of chemical substance/The level of expressed mRNA in the absence of chemical substance,yeast gene YNR010W,1.3
same,The level of expressed mRNA in the presence of chemical substance/The level of expressed mRNA in the absence of chemical substance,yeast gene YNR069C,1.5
same,The level of expressed mRNA in the presence of chemical substance/The level of expressed mRNA in the absence of chemical substance,yeast gene YOL013C,0.9
same,The level of expressed mRNA in the presence of chemical substance/The level of expressed mRNA in the absence of chemical substance,yeast gene YOL164W,0.9
same,The level of expressed mRNA in the presence of chemical substance/The level of expressed mRNA in the absence of chemical substance,yeast gene YOR036W,1.8
same,The level of expressed mRNA in the presence of chemical substance/The level of expressed mRNA in the absence of chemical substance,yeast gene YOR117W,0.8
same,The level of expressed mRNA in the presence of chemical substance/The level of expressed mRNA in the absence of chemical substance,yeast gene YOR124C,0.6
same,The level of expressed mRNA in the presence of chemical substance/The level of expressed mRNA in the absence of chemical substance,yeast gene YOR132W,0.9
same,The level of expressed mRNA in the presence of chemical substance/The level of expressed mRNA in the absence of chemical substance,yeast gene YOR157C,1.0
same,The level of expressed mRNA in the presence of chemical substance/The level of expressed mRNA in the absence of chemical substance,yeast gene YOR181W,1.0
same,The level of expressed mRNA in the presence of chemical substance/The level of expressed mRNA in the absence of chemical substance,yeast gene YOR185C,1.1
same,The level of expressed mRNA in the presence of chemical substance/The level of expressed mRNA in the absence of chemical substance,yeast gene YOR198C,1.0
same,The level of expressed mRNA in the presence of chemical substance/The level of expressed mRNA in the absence of chemical substance,yeast gene YOR259C,0.8
same,The level of expressed mRNA in the presence of chemical substance/The level of expressed mRNA in the absence of chemical substance,yeast gene YOR261C,1.0
same,The level of expressed mRNA in the presence of chemical substance/The level of expressed mRNA in the absence of chemical substance,yeast gene YOR288C,0.9
same,The level of expressed mRNA in the presence of chemical substance/The level of expressed mRNA in the absence of chemical substance,yeast gene YOR355W,0.7
same,The level of expressed mRNA in the presence of chemical substance/The level of expressed mRNA in the absence of chemical substance,yeast gene YOR383C,0.9
same,The level of expressed mRNA in the presence of chemical substance/The level of expressed mRNA in the absence of chemical substance,yeast gene YPL089C,1.2
same,The level of expressed mRNA in the presence of chemical substance/The level of expressed mRNA in the absence of chemical substance,yeast gene YPL109C,1.1
same,The level of expressed mRNA in the presence of chemical substance/The level of expressed mRNA in the absence of chemical substance,yeast gene YPL149W,1.5
same,The level of expressed mRNA in the presence of chemical substance/The level of expressed mRNA in the absence of chemical substance,yeast gene YPL154C,0.7
same,The level of expressed mRNA in the presence of chemical substance/The level of expressed mRNA in the absence of chemical substance,yeast gene YPR103W,0.7
same,The level of expressed mRNA in the presence of chemical substance/The level of expressed mRNA in the absence of chemical substance,yeast gene YPR108W,0.8
